Active and inactive are the calls of the source.
Assays:
[1] = biological target: T1, Adenosylmethionine-8-amino-7-oxononanoate aminotransferase (Mycobacterium tuberculosis, UniProt P9WQ81); test: Mycobacterium tuberculosis BioA enzyme inhibitor Measured in Biochemical System Using Plate Reader - 2163-02_Inhibitor_Dose_CherryPick_Activity.; assay type: functional, Mycobacterium tuberculosis UT205
T1 sequence (P9WQ81 whole entry): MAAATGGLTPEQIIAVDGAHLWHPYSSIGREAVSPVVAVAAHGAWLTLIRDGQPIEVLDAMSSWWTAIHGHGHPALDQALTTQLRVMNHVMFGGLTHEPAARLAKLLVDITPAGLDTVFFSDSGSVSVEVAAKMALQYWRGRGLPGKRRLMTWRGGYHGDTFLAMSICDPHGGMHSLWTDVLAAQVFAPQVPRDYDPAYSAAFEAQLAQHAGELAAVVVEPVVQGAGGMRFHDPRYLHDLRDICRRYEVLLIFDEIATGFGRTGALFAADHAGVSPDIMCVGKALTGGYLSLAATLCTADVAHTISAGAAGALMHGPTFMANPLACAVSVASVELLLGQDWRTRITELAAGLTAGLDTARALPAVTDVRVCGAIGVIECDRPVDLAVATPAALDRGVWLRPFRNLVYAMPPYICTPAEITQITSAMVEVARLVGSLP

[2] = Counterscreen for activators of the function of SWI/SNF related, matrix associated, actin dependent regulator of chromatin, subfamily a, member 2 (SMARCA2, BRM): Luminescence-based cell-based high throughput dose response assay to identify non-selective compounds using the VP16 reporter assay.; assay type: functional
[3] = biological target: SWI/SNF-related matrix-associated actin-dependent regulator of chromatin subfamily A member 2 (Homo sapiens, UniProt P51531); test: Luminescence-based cell-based high throughput dose response assay to identify activators of the function of SWI/SNF related, matrix associated, actin dependent regulator of chromatin, subfamily a, member 2 (SMARCA2, BRM).; assay type: functional
cells [4] = assay type: functional, cell-based
cells [5] = assay type: functional, cell-based; remark: listed apart in the source
[6] = Vero E6 cell cytotoxicity, dose response, cytotoxicity control for non-replicating M. tuberculosis project, secondary assay (AID 492998); assay type: functional, VeroE6; conditions: Vero C1008
[7] = biological target: T2, Mannose-6-phosphate isomerase (Homo sapiens, UniProt P34949); test: MPI inhibition at elevated mannose 6-phosphate – biochemical, fluorescence intensity, high mannose 6-phosphate, primary screen (AID 1220)
T2 sequence (P34949 whole entry): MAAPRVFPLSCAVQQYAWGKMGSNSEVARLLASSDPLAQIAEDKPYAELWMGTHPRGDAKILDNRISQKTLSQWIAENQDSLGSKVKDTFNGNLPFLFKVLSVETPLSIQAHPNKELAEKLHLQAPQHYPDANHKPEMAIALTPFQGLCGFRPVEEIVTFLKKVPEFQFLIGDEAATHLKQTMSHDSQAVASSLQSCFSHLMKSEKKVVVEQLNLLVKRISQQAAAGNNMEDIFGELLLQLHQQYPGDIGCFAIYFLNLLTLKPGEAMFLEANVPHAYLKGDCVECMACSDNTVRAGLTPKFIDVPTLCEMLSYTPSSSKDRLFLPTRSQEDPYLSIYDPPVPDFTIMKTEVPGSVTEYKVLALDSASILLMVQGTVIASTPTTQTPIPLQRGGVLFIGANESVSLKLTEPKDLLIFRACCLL

cells [8] = assay type: functional
Protein RecA = biological target: T3, Protein RecA (Mycobacterium tuberculosis, UniProt P9WHJ3); test: Fluorescence Cell-Free Homogeneous Dose Retest to Identify Inhibitors of RecA-Intein Splicing Activity. [Related pubchem assays (depositor defined):AID2097, AID2223, AID489010, AID492950]; assay type: functional
T3 sequence (P9WHJ3 whole entry): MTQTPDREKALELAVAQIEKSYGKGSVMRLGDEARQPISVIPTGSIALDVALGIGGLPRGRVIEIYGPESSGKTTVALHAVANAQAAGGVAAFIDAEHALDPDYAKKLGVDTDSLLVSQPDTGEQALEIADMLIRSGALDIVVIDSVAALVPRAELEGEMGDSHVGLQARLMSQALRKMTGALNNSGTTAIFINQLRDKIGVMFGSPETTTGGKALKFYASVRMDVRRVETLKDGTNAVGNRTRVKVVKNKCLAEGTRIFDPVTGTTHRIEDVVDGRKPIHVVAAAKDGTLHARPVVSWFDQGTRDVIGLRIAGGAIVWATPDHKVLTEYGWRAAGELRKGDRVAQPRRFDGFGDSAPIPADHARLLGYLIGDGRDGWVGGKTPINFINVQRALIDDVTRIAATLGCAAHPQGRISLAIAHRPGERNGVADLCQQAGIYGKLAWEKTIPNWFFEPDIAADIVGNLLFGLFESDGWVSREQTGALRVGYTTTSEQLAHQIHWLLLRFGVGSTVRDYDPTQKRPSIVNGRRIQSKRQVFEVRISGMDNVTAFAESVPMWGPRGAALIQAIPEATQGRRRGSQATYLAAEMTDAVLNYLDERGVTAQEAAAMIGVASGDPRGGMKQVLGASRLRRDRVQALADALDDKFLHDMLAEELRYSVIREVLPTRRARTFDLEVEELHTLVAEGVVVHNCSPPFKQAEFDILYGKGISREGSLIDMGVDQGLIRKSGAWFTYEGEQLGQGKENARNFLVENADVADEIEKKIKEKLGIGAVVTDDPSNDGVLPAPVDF

[9] = biological target: T4, Replicative DNA helicase DnaB (Mycobacterium tuberculosis, UniProt P9WMR3); test: DnaB intein splicing inhibitors, dose response, biochemical, cell-free fluorescence (AID 449749); assay type: functional
T4 sequence (P9WMR3 whole entry): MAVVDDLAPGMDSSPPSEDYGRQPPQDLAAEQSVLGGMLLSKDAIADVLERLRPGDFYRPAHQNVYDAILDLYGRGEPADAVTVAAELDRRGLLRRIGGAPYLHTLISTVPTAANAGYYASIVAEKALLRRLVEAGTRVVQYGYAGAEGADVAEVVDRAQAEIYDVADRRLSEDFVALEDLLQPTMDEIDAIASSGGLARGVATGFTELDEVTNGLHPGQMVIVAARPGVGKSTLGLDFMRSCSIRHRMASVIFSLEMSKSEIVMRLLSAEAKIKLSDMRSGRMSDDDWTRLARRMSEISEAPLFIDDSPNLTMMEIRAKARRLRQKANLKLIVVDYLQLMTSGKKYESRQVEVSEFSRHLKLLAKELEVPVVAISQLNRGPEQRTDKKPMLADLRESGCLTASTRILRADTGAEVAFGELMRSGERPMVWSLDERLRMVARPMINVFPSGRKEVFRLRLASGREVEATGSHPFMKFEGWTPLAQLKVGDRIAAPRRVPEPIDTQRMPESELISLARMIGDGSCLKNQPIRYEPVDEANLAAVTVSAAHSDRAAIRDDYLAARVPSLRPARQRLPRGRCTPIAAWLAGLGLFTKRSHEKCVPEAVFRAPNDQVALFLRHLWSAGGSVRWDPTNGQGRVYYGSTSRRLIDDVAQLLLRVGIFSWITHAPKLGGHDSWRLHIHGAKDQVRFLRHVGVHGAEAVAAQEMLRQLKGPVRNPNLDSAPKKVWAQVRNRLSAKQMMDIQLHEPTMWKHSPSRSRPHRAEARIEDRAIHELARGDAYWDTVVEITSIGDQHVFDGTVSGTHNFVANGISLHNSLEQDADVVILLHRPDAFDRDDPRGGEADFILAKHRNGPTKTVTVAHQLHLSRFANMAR

[10] = viability loss in CEM21 cells – cell-based, CellTiter-Glo luminescence, cherry-picked, cytotoxicity control for viral fusion inhibitor project, dose response (AID 652042); assay type: functional;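 further: potency for signal decrease meaning cytotoxicity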
[11] = blockers of HIV-1 ZM109 envelope-driven cell-cell fusion – HeLa effector, CEM target cells, luciferase, cherry-pick, dose response (AID 652058); assay type: functional, cell-based;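 further: luciferase signal from HIV-1 Env mediated cell-cell fusion of effector and target cells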
[12] = blockers of HIV-1 envelope-mediated cell-cell fusion – cherry-pick, dose response (AID 652057); assay type: functional, cell-based
[13] = HIV-1 AD8 envelope cell-cell fusion blockers – cherry-pick, dose response (AID 652062); assay type: functional, cell-based;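 further: luciferase signal from cell-cell fusion driven by HIV-1 clade B AD8 Env; potency is for inhibitors of fusion seen as a drop in luminescence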
cells [14] = assay type: functional, cell-based; remark: listed apart in the source
[15] = biological target: T5, Nuclear receptor subfamily 0 group B member 1 (Homo sapiens, UniProt P51843); assay type: functional, cell-based;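 further: HEK293T cells transfected with SF-1 and DAX-1 plus StAR promoter luciferase reporter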
T5 sequence (P51843 whole entry): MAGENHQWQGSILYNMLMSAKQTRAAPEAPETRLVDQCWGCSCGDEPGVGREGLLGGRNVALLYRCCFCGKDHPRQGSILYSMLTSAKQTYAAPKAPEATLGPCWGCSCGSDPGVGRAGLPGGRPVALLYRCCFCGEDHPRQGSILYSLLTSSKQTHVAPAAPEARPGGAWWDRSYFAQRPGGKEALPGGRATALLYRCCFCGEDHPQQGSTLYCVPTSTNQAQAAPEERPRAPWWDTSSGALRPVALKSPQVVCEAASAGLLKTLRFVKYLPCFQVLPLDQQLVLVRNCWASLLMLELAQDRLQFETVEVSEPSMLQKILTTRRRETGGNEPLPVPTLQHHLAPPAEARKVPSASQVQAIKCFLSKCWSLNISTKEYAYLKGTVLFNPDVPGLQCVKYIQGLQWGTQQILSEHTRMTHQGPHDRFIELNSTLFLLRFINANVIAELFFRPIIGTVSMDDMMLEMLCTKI

HEK293 = test: EBV LMP1 TES2 canonical NF-kB signalling blockers – cell-based, HEK293, luciferase, cherry-pick, dose response (AID 588343); assay type: functional; conditions: Homo sapiens
[16] = luciferase reporter signal suppression in cells – H4 neuroglioma cells, luminescence, dose response (AID 1990); assay type: functional, cell-based
[17] = alpha-synuclein stem-loop luciferase translation blockers – H4 neuroglioma cells, luminescence, confirmation (AID 1988); assay type: functional, cell-based
[18] = Luminescence Cell-Based Dose Response HTS to Identify Inhibitors of 5'UTR Stem-Loop Driven Prion Protein mRNA Translation in H4 Neuroglioblastoma Cells. [Related pubchem assays: 1827 (Project Summary), 1813 (Primary HTS)]; assay type: functional
cells [19] = assay type: functional, cell-based; remark: listed apart in the source
[20] = biological target: T6, Heat shock factor protein 1 (Mus musculus, UniProt P38532); test: decrease of HSF1-responsive luciferase luminescence – cell-based, NIH3T3, dose retest, confirmation (AID 2382); assay type: functional;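 further: NIH3T3 fibroblasts with HSF1-driven luciferase reporter stressed by proteasome inhibitor MG132; luminescence from HSF1-driven luciferase expression after 8 hours of MG132 stress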
T6 sequence (P38532 whole entry): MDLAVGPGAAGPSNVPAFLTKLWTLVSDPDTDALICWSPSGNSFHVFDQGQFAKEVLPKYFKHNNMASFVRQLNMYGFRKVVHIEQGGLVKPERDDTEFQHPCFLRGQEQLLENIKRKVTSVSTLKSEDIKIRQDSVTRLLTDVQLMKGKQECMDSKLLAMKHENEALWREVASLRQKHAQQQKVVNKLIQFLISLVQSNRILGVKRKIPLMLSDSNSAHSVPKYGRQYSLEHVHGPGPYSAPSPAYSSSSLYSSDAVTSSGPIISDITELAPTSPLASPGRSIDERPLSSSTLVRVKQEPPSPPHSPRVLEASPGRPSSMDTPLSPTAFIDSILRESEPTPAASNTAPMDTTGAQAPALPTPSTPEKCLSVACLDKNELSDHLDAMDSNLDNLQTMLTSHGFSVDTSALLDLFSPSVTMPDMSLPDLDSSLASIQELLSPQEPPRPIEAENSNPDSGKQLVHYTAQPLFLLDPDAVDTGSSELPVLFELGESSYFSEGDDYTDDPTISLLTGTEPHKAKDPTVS

cells [21] = assay type: functional, cell-based; remark: listed apart in the source
[22] = inhibition of ADAM10 peptide cleavage – biochemical, FRET peptide substrate, recombinant human ADAM10, selectivity assay for ADAM17 exosite inhibitor project, dose response (AID 743259);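 further: ADAM10 enzyme cleaving a FRET peptide substrate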

Chain of SWI/SNF-related matrix-associated actin-dependent regulator of chromatin subfamily A member 2 (P51531 whole entry): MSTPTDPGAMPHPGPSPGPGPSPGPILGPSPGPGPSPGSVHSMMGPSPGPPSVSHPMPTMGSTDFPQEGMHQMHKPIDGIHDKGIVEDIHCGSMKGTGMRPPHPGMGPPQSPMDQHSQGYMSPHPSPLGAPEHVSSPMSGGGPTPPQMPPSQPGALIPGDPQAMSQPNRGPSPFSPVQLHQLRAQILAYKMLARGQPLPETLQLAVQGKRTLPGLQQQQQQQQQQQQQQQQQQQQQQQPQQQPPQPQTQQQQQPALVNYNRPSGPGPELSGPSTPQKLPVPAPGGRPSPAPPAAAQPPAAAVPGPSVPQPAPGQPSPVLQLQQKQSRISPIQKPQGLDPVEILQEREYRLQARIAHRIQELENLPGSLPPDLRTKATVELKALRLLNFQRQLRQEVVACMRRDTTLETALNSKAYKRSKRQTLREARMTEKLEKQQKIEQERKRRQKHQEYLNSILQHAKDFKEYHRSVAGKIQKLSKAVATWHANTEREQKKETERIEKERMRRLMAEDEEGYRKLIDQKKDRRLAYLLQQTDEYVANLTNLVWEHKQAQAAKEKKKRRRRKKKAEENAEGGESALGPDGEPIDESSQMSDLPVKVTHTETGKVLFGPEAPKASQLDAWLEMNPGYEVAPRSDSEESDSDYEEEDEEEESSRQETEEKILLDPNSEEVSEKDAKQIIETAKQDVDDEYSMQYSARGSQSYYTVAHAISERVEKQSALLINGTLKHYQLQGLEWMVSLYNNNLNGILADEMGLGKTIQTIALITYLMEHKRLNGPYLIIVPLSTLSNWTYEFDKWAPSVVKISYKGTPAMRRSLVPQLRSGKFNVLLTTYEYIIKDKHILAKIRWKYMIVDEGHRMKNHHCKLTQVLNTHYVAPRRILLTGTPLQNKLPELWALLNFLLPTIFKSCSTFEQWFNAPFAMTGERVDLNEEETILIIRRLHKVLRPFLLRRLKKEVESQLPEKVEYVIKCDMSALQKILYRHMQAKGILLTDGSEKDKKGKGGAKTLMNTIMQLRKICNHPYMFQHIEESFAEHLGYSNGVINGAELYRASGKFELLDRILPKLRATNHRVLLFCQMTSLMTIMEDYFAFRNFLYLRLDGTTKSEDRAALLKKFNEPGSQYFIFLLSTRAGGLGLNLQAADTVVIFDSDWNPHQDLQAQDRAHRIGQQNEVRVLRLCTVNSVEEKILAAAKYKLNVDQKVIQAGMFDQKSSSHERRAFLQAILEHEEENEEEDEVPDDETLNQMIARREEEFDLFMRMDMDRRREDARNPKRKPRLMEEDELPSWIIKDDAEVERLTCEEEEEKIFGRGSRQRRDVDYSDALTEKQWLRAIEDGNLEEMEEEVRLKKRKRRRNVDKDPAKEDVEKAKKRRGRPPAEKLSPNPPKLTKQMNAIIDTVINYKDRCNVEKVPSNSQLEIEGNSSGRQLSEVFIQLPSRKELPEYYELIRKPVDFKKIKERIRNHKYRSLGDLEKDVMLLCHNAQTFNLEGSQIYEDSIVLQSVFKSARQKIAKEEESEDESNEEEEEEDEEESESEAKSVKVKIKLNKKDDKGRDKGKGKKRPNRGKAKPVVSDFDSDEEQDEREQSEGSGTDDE

SMILES: CCN(CC)c1ccc2cc(C(=O)c3cccs3)c(=O)oc2c1
- AC50 [1]: 0.195 µM (active)
- EC50 [2]: > 91 µM (inactive)
- EC50 [3]: > 91 µM (inactive)

SMILES: c1ccc(CCN2CN(CCCN3CCOCC3)c3nc4ccccc4n3C2)cc1
- IC50 (cells [4]): > 29.9 µM (inactive)
- EC50 (cells [5]): > 29.9 µM (inactive)

SMILES: CCOC(=O)C(Nc1ccc2ccccc2c1)C(=O)OCC
- CC50 [6]: > 20 µM (active)
- IC50 [7]: > 50 µM (not active)
- IC50 (cells [8]): 4.41 µM (active)
- EC50 (Protein RecA): 13 µM (active)
- EC50 [2]: > 91.2 µM (inactive)
- EC50 [3]: > 91.2 µM (inactive)
- AC50 [9]: 5.7 µM (active)

SMILES: O=C(C[C@H]1C=C[C@@H](NC(=O)c2cccc(F)c2)[C@@H](CO)O1)NCc1ccc(Oc2ccccc2)cc1
- AC50 [10]: 46.3 µM (active)
- AC50 [11]: 0.725 µM (active)
- AC50 [12]: 0.988 µM (active)
- AC50 [13]: 2.83 µM (active)

SMILES: CC(C)Oc1ccc(C(=O)Nc2nnc(SCC(=O)N3CCOCC3)s2)cc1
- IC50 (cells [14]): > 67.5 µM (inactive)
- IC50 [15]: > 67.5 µM (inactive)
- AC50 (HEK293): 0.897 µM (active)

SMILES: Cc1c(C(=O)OCC(C)C)[nH]c2c1C(=O)CC(c1ccco1)C2 (stereo not given)
- IC50 (cells [14]): > 67.5 µM (inactive)
- EC50 [16]: 1.95 µM (active)
- IC50 [15]: > 67.5 µM (inactive)
- EC50 [17]: 0.212 µM (active)
- EC50 [18]: 1.5 µM (active)

SMILES: COc1ccc(C2NC(S)=NC3=C2CCCC3=C2SCCS2)cc1 (stereo not given)
- IC50 (cells [14]): > 67.5 µM (inactive)
- IC50 [15]: 7.9 µM (active)
- EC50 (cells [19]): 10.6 µM (active)
- EC50 [20]: > 195 µM (not active)
- EC50 (cells [21]): > 350 µM (not active)

SMILES: C[C@H](NC(=O)c1[nH]cnc1C(=O)NC(c1ccccc1)c1ccccc1)C(=O)OCc1ccccc1
- IC50 [22]: > 69.5 µM (inactive)
